This note sets out measurements from ChEMBL document CHEMBL4699579, “A Peptidyl Inhibitor that Blocks Calcineurin-NFAT Interaction and Prevents Acute Lung Injury” (J Med Chem, 2020).

Positions of bridges follow the written chain, without caps; N, C: chain ends. Non-standard residues stand in square brackets, D forms with d. Residues, ends and D or L forms follow the SMILES beside them. Chains are numbered I, II in the order given. *: point of attachment. 2Nal = N[C@@H](Cc1ccc2ccccc2c1)C(=O)O; Val(3-OH) = CC(C)(O)[C@H](N)C(=O)O; Tle = CC(C)(C)[C@H](N)C(=O)O; X1 = O=C(c1ccnc(Cl)c1Cl)*; AEEA = NCCOCCOCC(=O)O

The nature of the data set: Drug distribution in BALB/c mouse pancreas at 0.6 mg/kg, iv using compound labelled with cyanine-5 measured after 24 hrs by fluorescence based assay. Format: ADME, organism-based. Conditions: read-out: Drug uptake.

As to `CC[C@H](C)[C@H](NC(=O)[C@@H](NC(=O)c1ccnc(Cl)c1Cl)C(C)(C)C)C(=O)N[C@H](C(=O)N[C@H](C(=O)N[C@H](C(=O)N[C@@H](CCC(N)=O)C(=O)N[C@@H](Cc1c[nH]cn1)C(=O)N[C@H](CC(C)C)C(=O)N[C@@H](CO)C(=O)NCCOCCOCC(=O)N[C@@H](CCCCNC(=O)CC[C@@H]1NC(=O)[C@@H](CCCNC(=N)N)NC(=O)[C@H](CCCNC(=N)N)NC(=O)[C@@H](CCCNC(=N)N)NC(=O)[C@H](CCCNC(=N)N)NC(=O)[C@H](Cc2ccc3ccccc3c2)NC(=O)[C@@H](Cc2ccccc2)NC1=O)C(N)=O)[C@@H](C)O)[C@@H](C)CC)C(C)(C)O` (I: X1-[Tle]I[Val(3-OH)]ITQH[dL]S[AEEA]K-NH2 / II: cyclo([2Nal]R[dR]R[dR]E[dF]); amide I:11-II:6), the concentration at 24 h is greater than 50 nM.
